Test results taken from ChEMBL document CHEMBL3822371, “Rapid Discovery and Structure-Activity Relationships of Pyrazolopyrimidines That Potently Suppress Breast Cancer Cell Growth via SRC Kinase Inhibition with Exceptional Selectivity over ABL Kinase” (J Med Chem, 2016).
Activity calls are given as the source filed them. The rule behind the calls is not given here.

Experiments:
[1] = molecular target: T1, Proto-oncogene tyrosine-protein kinase Src (Homo sapiens, UniProt P12931); assay: biochemical; assay type: cell-based
[2] = molecular target: Tyrosine-protein kinase ABL1 (Homo sapiens, UniProt P00519)
[3] = molecular target: Tyrosine-protein kinase Yes (Homo sapiens, UniProt P07947); assay: Inhibition of human YES using poly[Glu,Tyr]4:1 as substrate in presence of [gamma-33P] ATP
MCF7 [4] = assay: Antiproliferative activity against human MCF7 cells assessed as blockage of cell division at […] after 48 to 120 hrs by microscopy based time-lapse imaging assay; assay type: functional
[5] = molecular target: Tyrosine-protein kinase Fyn (Homo sapiens, UniProt P06241); assay: Inhibition of human FYN using poly[Glu,Tyr]4:1 as substrate in presence of [gamma-33P]ATP
[6] = molecular target: Mast/stem cell growth factor receptor Kit (Homo sapiens, UniProt P10721); assay: Inhibition of human KIT using poly[Glu,Tyr]4:1 as substrate in presence of [gamma-33P]ATP
[7] = molecular target: Serine/threonine-protein kinase mTOR (Homo sapiens, UniProt P42345); assay: Inhibition of human mTOR using poly[Glu,Tyr]4:1 as substrate in presence of [gamma-33P]ATP
[8] = molecular target: Platelet-derived growth factor receptor alpha (Homo sapiens, UniProt P16234); assay: Inhibition of human PDGFRalpha using poly[Glu,Tyr]4:1 as substrate in presence of [gamma-33P]ATP
[9] = molecular target: Proto-oncogene tyrosine-protein kinase receptor Ret (Homo sapiens, UniProt P07949); assay: Inhibition of human RET using poly[Glu,Tyr]4:1 as substrate in presence of [gamma-33P]ATP
MCF7 [10] = assay: cells; details: Homo sapiens, MCF7, 120 h
MDA-MB-231 [11] = assay: cells; details: Homo sapiens, MDA-MB-231, 120 h
[12] = molecular target: Focal adhesion kinase 1 (Mus musculus) (UniProt P34152); assay: Inhibition of FAK phosphorylation at tyrosine 861 in SRC, YES and FYN deficient mouse SYF cells at 3 to 100 nM preincubated for 1.5 hrs followed by serum stimulation for 1 hr by Western blot analysis; assay type: cell-based
[13] = Antiproliferative activity against SRC, YES and FYN deficient mouse SYF cells at 3 to 100 nM; assay type: cell-based; details: 0.1 µM
MDA-MB-231 [14] = assay: Antimigratory activity in human MDA-MB-231 cells at >10 nM after 24 hrs by microscopy based scratch-wound cell migration assay; assay type: functional
MDA-MB-231 [15] = assay: Cytotoxicity against human MDA-MB-231 cells assessed as reduction in cell viability at >10 nM after 24 hrs; assay type: cell-based; details: mda-mb-231, 24 h
MCF7 [16] = assay: Induction of apoptosis in human MCF7 cells assessed as caspase 3/7 activity at >/= 100 nM after 5 days using phase contrast and fluorescent microscopy; assay type: functional, cell-based
Danio rerio = species on record: Danio rerio; assay: Effect on the development of the wild-type zebrafish embryos at 500 uM treated for 4 hrs measured at 48 hrs by fluorescent microscopy; assay type: ADME, organism-based; details: in vivo
Plasma [17] = assay: Metabolic stability in human plasma at 1 uM after 20 to 120 mins by LC-MS/MS analysis; assay type: ADME, cell-free
Plasma [18] = assay: Metabolic stability in mouse plasma at 1 uM after 20 to 120 mins by LC-MS/MS analysis; assay type: ADME, cell-free
Plasma [19] = assay: Metabolic stability in rat plasma at 1 uM after 20 to 120 mins by LC-MS/MS analysis; assay type: ADME, cell-free
Cytochrome P450 1A2 = molecular target: T2, Cytochrome P450 1A2 (Homo sapiens, UniProt P05177); assay: Inhibition of CYP1A2 (unknown origin) at 10 uM; assay type: ADME
T2 sequence (P05177 whole entry): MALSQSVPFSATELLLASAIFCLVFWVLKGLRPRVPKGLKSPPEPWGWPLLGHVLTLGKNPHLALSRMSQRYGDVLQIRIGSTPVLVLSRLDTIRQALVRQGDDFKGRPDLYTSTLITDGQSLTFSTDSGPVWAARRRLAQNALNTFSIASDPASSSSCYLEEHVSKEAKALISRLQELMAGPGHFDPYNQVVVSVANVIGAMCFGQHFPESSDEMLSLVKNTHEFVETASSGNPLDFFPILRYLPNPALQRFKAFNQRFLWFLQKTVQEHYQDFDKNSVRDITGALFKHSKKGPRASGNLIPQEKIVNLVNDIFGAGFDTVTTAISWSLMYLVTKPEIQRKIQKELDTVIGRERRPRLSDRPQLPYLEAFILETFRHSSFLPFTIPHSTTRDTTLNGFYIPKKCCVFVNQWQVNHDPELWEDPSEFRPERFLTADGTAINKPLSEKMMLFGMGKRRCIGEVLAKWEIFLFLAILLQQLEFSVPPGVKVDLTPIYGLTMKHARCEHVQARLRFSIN

Cytochrome P450 3A4 = Cytochrome P450 3A4 (Homo sapiens, UniProt P08684); assay: Inhibition of CYP3A4 (unknown origin) at 10 uM; assay type: ADME
Cytochrome P450 2C9 = Cytochrome P450 2C9 (Homo sapiens, UniProt P11712); assay: Inhibition of CYP2C9 (unknown origin) at 10 uM; assay type: ADME
Cytochrome P450 2D6 = Cytochrome P450 2D6 (Homo sapiens, UniProt P10635); assay: Inhibition of CYP2D6 (unknown origin) at 10 uM; assay type: ADME
Cytochrome P450 2C19 = Cytochrome P450 2C19 (Homo sapiens, UniProt P33261); assay: Inhibition of CYP2C19 (unknown origin) at 10 uM; assay type: ADME
Mus musculus = assay: In vivo inhibition of SRC phosphorylation at tyrosine 416 in human HCT116 cells xenografted in mouse at 50 mg/kg via oral gavage administered daily for 3 days measured 3 hrs post last dose by immunohistochemistry; assay type: functional, organism-based; details: HCT-116
[20] = molecular target: T1, Proto-oncogene tyrosine-protein kinase Src
MCF7 [21] = assay: Antiproliferative activity against human MCF7 cells assessed as reduction in cell confluence level at […] after 5 days by microscopy based time-lapse imaging assay; assay type: functional

T1 sequence (P12931 2-536 limits assumed): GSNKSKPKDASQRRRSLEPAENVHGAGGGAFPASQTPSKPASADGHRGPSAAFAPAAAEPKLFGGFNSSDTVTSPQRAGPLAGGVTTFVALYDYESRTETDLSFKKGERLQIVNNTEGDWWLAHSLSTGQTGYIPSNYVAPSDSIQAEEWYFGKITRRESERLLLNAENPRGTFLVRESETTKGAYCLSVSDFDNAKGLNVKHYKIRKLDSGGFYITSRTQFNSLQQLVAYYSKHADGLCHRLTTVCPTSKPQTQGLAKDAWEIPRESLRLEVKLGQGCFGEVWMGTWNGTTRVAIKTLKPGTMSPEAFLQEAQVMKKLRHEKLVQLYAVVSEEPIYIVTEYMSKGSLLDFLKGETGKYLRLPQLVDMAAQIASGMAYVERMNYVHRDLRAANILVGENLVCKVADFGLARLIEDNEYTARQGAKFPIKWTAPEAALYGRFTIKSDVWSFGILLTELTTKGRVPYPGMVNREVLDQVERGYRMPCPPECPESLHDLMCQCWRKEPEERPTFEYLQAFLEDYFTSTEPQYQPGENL
Chain of Tyrosine-protein kinase Yes (P07947 whole entry): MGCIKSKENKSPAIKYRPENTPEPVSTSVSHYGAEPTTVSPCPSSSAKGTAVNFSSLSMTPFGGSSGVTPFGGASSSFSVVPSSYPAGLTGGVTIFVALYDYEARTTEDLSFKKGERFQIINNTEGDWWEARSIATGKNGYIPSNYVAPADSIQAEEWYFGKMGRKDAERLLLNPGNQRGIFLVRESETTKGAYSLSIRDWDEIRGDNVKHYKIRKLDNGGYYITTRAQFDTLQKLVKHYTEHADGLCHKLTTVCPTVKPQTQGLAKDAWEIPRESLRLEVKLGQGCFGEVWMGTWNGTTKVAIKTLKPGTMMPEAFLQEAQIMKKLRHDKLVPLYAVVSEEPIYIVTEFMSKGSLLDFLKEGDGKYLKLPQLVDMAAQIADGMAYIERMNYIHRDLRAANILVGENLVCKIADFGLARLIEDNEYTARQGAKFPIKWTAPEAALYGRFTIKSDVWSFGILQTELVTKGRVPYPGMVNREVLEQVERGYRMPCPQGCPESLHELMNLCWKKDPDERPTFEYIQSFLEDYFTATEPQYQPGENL
Chain of Platelet-derived growth factor receptor alpha (P16234 whole entry): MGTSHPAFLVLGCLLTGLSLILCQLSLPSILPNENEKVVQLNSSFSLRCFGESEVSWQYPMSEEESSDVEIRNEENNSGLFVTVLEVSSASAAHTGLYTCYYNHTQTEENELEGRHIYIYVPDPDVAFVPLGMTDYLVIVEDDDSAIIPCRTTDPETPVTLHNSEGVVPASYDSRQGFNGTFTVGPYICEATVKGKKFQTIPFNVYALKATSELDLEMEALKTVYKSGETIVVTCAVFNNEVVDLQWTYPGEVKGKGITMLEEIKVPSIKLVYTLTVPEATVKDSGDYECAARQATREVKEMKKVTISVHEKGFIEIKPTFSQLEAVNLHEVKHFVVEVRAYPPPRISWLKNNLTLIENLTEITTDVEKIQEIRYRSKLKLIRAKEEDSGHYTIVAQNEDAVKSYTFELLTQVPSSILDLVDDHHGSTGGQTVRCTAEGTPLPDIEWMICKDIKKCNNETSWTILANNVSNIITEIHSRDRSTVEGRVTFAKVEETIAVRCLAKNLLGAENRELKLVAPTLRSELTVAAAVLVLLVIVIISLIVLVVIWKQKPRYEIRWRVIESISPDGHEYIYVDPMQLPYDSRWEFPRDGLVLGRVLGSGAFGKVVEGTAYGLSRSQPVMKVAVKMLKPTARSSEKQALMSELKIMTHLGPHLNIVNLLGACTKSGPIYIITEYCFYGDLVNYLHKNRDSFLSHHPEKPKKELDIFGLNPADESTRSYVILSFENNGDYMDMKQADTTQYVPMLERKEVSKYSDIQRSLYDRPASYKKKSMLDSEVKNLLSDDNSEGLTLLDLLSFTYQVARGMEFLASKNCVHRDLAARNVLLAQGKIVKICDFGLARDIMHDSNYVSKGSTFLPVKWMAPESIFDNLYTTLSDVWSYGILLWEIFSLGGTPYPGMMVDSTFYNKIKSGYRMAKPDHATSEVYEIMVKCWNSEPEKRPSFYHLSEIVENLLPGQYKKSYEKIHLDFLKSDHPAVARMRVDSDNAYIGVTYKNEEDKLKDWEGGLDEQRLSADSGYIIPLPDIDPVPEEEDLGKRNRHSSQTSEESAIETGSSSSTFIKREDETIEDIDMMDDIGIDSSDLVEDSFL
Chain of Mast/stem cell growth factor receptor Kit (P10721 whole entry): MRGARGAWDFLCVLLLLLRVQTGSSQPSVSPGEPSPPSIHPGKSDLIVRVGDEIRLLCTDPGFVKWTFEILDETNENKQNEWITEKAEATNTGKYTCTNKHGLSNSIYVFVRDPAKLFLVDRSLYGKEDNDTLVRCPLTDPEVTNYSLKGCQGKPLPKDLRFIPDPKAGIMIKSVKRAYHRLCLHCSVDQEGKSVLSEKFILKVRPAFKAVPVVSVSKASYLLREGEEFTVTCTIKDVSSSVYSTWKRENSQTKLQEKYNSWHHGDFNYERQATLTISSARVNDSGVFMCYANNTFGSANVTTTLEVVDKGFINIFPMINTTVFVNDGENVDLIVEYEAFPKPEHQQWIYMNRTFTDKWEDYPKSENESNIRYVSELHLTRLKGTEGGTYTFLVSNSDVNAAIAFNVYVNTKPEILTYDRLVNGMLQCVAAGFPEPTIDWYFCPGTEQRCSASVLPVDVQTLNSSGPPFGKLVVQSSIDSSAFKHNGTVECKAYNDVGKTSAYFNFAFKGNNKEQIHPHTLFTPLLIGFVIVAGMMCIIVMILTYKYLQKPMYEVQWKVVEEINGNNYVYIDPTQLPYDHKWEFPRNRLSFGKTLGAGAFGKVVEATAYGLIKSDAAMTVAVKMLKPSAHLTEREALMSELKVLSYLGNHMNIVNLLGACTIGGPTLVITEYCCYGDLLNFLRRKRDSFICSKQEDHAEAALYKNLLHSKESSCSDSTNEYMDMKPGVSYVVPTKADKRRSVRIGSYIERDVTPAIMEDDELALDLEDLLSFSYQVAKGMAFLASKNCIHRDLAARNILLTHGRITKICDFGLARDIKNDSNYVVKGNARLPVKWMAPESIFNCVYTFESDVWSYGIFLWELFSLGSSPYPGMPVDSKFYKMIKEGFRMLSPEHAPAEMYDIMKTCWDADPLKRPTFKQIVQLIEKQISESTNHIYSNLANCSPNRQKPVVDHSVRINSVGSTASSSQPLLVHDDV
Chain of Tyrosine-protein kinase ABL1 (P00519 whole entry): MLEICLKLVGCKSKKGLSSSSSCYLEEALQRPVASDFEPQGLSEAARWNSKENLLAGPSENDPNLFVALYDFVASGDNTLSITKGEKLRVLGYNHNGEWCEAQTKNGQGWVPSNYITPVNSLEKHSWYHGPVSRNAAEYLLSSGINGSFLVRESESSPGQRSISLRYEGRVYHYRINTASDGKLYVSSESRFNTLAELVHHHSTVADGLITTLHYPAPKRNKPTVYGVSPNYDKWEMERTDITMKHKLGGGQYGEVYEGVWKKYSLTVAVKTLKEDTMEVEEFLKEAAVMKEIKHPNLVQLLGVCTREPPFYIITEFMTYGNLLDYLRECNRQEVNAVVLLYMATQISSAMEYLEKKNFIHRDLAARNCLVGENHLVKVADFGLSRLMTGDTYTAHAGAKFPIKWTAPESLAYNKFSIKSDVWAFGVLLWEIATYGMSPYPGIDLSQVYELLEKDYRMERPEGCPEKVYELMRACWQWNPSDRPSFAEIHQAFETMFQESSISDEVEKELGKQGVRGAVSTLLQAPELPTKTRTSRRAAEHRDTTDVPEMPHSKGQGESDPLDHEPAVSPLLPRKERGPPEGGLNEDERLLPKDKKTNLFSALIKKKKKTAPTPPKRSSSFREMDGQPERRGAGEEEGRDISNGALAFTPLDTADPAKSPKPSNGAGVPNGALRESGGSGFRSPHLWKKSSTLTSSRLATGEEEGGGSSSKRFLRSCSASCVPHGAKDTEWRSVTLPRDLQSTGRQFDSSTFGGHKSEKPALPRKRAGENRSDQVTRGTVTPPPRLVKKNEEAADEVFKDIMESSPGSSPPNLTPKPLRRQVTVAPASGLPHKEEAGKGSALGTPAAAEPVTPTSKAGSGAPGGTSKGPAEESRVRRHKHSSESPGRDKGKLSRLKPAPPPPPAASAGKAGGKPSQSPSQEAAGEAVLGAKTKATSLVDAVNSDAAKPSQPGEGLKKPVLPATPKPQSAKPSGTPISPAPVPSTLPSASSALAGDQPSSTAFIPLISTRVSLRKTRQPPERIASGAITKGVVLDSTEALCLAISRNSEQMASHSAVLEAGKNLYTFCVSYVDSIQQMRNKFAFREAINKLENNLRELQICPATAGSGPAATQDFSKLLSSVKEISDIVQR
Chain of Cytochrome P450 2D6 (P10635 whole entry): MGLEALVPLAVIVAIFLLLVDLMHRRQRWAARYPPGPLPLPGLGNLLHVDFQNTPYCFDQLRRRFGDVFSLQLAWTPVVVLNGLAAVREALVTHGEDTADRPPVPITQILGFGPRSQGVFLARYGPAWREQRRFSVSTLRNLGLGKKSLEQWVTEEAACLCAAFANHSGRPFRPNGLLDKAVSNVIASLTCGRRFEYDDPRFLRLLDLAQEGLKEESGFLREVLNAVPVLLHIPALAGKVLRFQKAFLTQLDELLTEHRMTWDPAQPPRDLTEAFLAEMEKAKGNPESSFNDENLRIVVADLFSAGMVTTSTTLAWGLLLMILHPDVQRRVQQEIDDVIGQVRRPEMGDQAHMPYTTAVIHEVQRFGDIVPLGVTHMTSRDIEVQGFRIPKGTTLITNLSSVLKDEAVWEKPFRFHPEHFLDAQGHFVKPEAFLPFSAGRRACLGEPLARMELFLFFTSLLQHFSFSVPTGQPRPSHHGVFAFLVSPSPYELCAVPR

In the case of CN(C)C1CCN(CCn2nc(-c3ccc(NC(=O)OC(C)(C)C)cc3)c3c(N)ncnc32)CC1, the IC50 [1] is reported as 0.071 µM and the IC50 [2] is reported as > 10 µM.
For CCOC(Cn1nc(-c2cnc3[nH]ccc3c2)c2c(N)ncnc21)OCC, the IC50 [1] was 2.45 µM, the IC50 [3] was 0.566 µM and the Activity (MCF7 [4]) was “Active”. The IC50 [2] was 1.21 µM, the IC50 [5] was 1.23 µM and the IC50 [6] was > 10 µM. For the same compound, the IC50 [7] was 0.328 µM, the IC50 [8] was > 10 µM and the IC50 [9] was 0.598 µM.
Compound CN(C)CC1CCN(CCn2nc(-c3cccc(O)c3)c3c(N)ncnc32)CC1 has an EC50 (MCF7 [10]) of 30.3 µM.
CN(C)C1CCN(CCn2nc(-c3ccc(NC(=O)OC(C)(C)C)c(O)c3)c3c(N)ncnc32)CC1 gave an EC50 (MDA-MB-231 [11]) of 9.71 µM.
In the case of COc1cc(-c2nn(CCN3CCC(N(C)C)CC3)c3ncnc(N)c23)ccc1NC(=O)OC(C)(C)C, the inhibition [12] is reported as “inactive”, the Activity [13] is reported as “Non-toxic” and the Activity (MDA-MB-231 [14]) is reported as “Active”. For the same compound, the Activity (MDA-MB-231 [15]) was “Toxic”, the Activity (MCF7 [16]) was “Active” and the Activity (Danio rerio) was “Non-toxic”. For the same compound, the Stability (Plasma [17]) was “Stable”, the Stability (Plasma [18]) was “Stable” and the Stability (Plasma [19]) was “Stable”. For the same compound, the “inhibition (INH)” value (Cytochrome P450 1A2) was “Active”, the “inhibition (INH)” value (Cytochrome P450 3A4) was “Not Active” and the “inhibition (INH)” value (Cytochrome P450 2C9) was “Not Active”. The “inhibition (INH)” value (Cytochrome P450 2D6) was “Not Active”, the “inhibition (INH)” value (Cytochrome P450 2C19) was “Not Active” and the inhibition (Mus musculus) was “Active”. The IC50 [6] was > 10 µM and the TDI [20] was “inactive”.
COc1cc(-c2nn(CCN3CCCC(N(C)C)C3)c3ncnc(N)c23)ccc1NC(=O)OC(C)(C)C (centres undefined) showed an EC50 (MDA-MB-231 [11]) of 1.99 µM.
COc1cc(-c2nn(CCN3CCC(N(C)C)CC3)c3ncnc(N)c23)ccc1NC(=O)CCc1ccccc1 gave an EC50 (MDA-MB-231 [11]) of 12.2 µM.
For COc1cc(-c2nn(CCN3CCC(N(C)C)CC3)c3ncnc(N)c23)ccc1N, the EC50 (MDA-MB-231 [11]) was 6.72 µM.
In the case of CN(C)CC1CCN(CCn2nc(-c3ccc4ncccc4c3)c3c(N)ncnc32)CC1, the EC50 (MCF7 [10]) is reported as 93.6 µM.
Work on CN(C)CC1CCN(CCn2nc(-c3ccoc3)c3c(N)ncnc32)CC1 yielded an EC50 (MCF7 [10]) of 57.1 µM.
In the case of COc1cc(-c2nn(CCN3CCC(CN(C)C)CC3)c3ncnc(N)c23)ccc1NC(=O)OC(C)(C)C, the Activity [13] is reported as “Non-toxic”.
Work on COc1cc(-c2nn(CCN3CCC(OC)CC3)c3ncnc(N)c23)ccc1NC(=O)OC(C)(C)C yielded an EC50 (MDA-MB-231 [11]) of 1.96 µM.
CCOC(Cn1nc(-c2ccoc2)c2c(N)ncnc21)OCC showed an EC50 (MCF7 [10]) of 43.1 µM.
For COc1ccc(-c2nn(CCN3CCC(CN(C)C)CC3)c3ncnc(N)c23)cc1OC, the EC50 (MCF7 [10]) was 18.3 µM.
For COc1cc(-c2ccn(CCN3CCC(N(C)C)CC3)n2)ccc1NC(=O)OC(C)(C)C, the EC50 (MDA-MB-231 [11]) was 32.6 µM.
With Cc1ccc(-c2nn(C(C)(C)C)c3ncnc(N)c23)cc1 the IC50 [3] was 0.036 µM and the IC50 [8] was 0.657 µM.
In the case of Cc1ccc(-c2nn(CCN3CCN(C)CC3)c3ncnc(N)c23)cc1, the Activity (MCF7 [21]) is reported as “Active”.
For Cc1ccc(-c2nn(CCN3CCN(CCN(C)C)CC3)c3ncnc(N)c23)cc1, the Activity (MCF7 [21]) was “Active”.
